From PMC9312958, “A Novel and Selective Dopamine Transporter Inhibitor, (S)-MK-26, Promotes Hippocampal Synaptic Plasticity and Restores Effort-Related Motivational Dysfunctions” (Biomolecules, 2022)

Legend:
hSERT = biological target: T1, hSERT (Homo sapiens, UniProt P31645); test: Uptake inhibition assay in HEK293 cells expressing hSERT; assay type: cell-based
T1 construct: expressed in transfected cells
Procedure: (§1) Human embryonic kidney 293 cells (HEK293 cells) were cultivated in Dulbecco’s Modified Eagle Medium (DMEM), containing 10% heat-inactivated fetal calf serum (FCS; 100 mL/L), streptomycin (100 μg/100 mL) and penicillin ([…]). Geneticin (50 μg/mL) was added to select cells stably expressing the human isoforms of dopamine, norepinephrine and serotonin transporter (hDAT, hNET, and hSERT, respectively) as described earlier. Cell lines were maintained in culture in humidified atmosphere (37 °C, 5% CO2), and passaged when reached 80–90% confluency. Cells expressing the desired transporter were seeded the day before the experiment (40,000 cells per well) or two days before the experiments (20,000 cells per well) onto poly-D-lysine (PDL)-coated 96-well plates.
Uptake inhibition experiments were carried out as reported previously. […] Thereafter, 200 μL of Ultima Gold^TM XR scintillation cocktail (PerkinElmer, MA, USA) was added, the plates were shaken and the radioactivity accumulated into the cells determined in a Wal-lac 1450 MicroBeta TriLux Liquid Scintillation Counter & Lumi (GMI, Ramsey, MN, USA). Non- specific tritiated substrate uptake was measured in the presence of 100 μM cocaine (for hDAT and hNET) or 10 μM paroxetine (for hSERT), and subtracted from the data. […]

hDAT = biological target: T2, hDAT (Homo sapiens, UniProt Q01959); test: Uptake inhibition assay in HEK293 cells expressing hDAT; assay type: cell-based
T2 construct: expressed in transfected cells
T2 sequence (Q01959 whole entry): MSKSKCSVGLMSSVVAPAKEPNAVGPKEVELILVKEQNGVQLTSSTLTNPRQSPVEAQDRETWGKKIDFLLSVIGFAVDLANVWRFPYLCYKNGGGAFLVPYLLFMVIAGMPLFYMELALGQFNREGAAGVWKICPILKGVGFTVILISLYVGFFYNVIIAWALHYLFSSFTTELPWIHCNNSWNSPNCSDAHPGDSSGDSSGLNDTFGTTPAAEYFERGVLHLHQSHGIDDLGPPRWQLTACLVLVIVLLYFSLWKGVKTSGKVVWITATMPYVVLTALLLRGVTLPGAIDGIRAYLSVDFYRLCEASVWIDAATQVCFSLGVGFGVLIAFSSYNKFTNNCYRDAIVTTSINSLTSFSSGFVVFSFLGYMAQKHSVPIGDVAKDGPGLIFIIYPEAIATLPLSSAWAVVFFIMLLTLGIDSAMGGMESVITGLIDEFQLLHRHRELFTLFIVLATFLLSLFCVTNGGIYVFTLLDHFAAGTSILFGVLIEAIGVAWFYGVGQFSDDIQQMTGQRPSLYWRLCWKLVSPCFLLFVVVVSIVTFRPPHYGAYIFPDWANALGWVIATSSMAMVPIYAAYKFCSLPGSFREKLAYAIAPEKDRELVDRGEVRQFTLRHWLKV
Procedure: as §1
Uptake inhibition experiments were carried out as reported previously. Ninety-six-well plates containing hDAT-, hNET- or hSERT-expressing cells were washed with Krebs-HEPES buffer (KHB; 25 mM HEPES, 120 mM NaCl, 5 mM KCl, 1.2 mM CaCl2, and 1.2 mM MgSO4 and 5 mM D-glucose, pH = 7.3). Cells were then preincubated with increasing concentrations of the compound diluted in KHB for 6 min. Following the pre-incubation of the cells with the compound, the tritiated substrate (hDAT: 0.15 μM [^3H]DA; hNET: 0.05 μM [^3H]MPP^+; hSERT: 0.1 μM [^3H]5-HT) was added to the wells. The uptake was terminated by removal of tritiated substrate and by washing the cells with ice-cold KHB after 1 min (for hDAT and hSERT) or 3 min (for hNET). Thereafter, 200 μL of Ultima Gold^TM XR scintillation cocktail (PerkinElmer, MA, USA) was added, the plates were shaken and the radioactivity accumulated into the cells determined in a Wal-lac 1450 MicroBeta TriLux Liquid Scintillation Counter & Lumi (GMI, Ramsey, MN, USA). Non- specific tritiated substrate uptake was measured in the presence of 100 μM cocaine (for hDAT and hNET) or 10 μM paroxetine (for hSERT), and subtracted from the data. Uptake in the presence of test drugs was normalized to the uptake in the presence of the vehicle.

[1] = test system: adult male Sprague Dawley rats; test: FR5/chow feeding choice task; assay type: in vivo, rat
Procedure: Pharmacological agents: (S)-MK-26 was obtained from the Lubec Laboratory (University of Vienna, Austria) and dissolved in dimethyl sulfoxide (DMSO) (10%), Tween 80 (15%), and 0.9% saline (75%). The DMSO/Tween 80/saline mixture was administered as the vehicle control. The dose range was selected as 3.75–45.0 mg/kg based on its DAT affinity and pilot studies. It was administered 30 min before testing. TBZ (9,10-dimethoxy3-(2-methylpropyl)-1,3,4,6,7, 11b hexahydrobenzo[a]quinolizin2-one) was obtained from Tocris Bioscience (Ellisville, MO) and was dissolved in DMSO (20%) and 0.9% saline (80%) and was titrated with 1.0 N HCl until the drug was dissolved at a pH of 4.0–4.5. The DMSO/saline solution with equal amounts of HCl was administered as the vehicle control. The selected dose was 1.0mg/kg based on the previous research from our laboratory. It was administered 120 min prior to testing.
FR5/chow feeding choice task: A total of 8 adult male Sprague Dawley rats (Envigo Sprague Dawley, Indianapolis, IN, USA; weights 275–299 g upon arrival) were pair-housed in a colony maintained at 23 °C, with a 12 h light/dark cycle (lights on 07:00). Rats were food deprived to 85% of their free-feeding body weight with modest growth throughout the experiment and water was available ad libitum in their home cages. All the animal protocols were approved by the University of Connecticut Institutional Animal Care and Use Committee, and the experiments were completed according to National Institutes of Health guidelines.
Behavioral sessions were conducted in operant chambers (28 × 23 × 23 cm^3; Med Associates, Fairfax, VT, USA) with 30 min sessions 5 days/week. Rats were initially trained to lever press on magazine training for 3 days, followed by an FR1 schedule for 3 days (high-carbohydrate 45-mg pellets, Bio-Serv, Frenchtown, NJ, USA), and then moved to the FR5 schedule. After 5 weeks of training on the FR5 schedule, lab chow was introduced as the concurrently available choice food (Laboratory Diet, 5P00 Prolab RMH 3000, Purina Mills, St. Louis, MO, USA; typically 15–20 g). At the end of each session, rats were immediately removed from the chambers. The number of lever pressing was recorded and the amount of consumed chow was calculated by weighing the remaining food, including spillage. Rats were trained on the FR5/chow feeding choice task for 5 weeks, after which drug testing began.
To test the effects of (S)-MK-26 on FR5/Chow feeding choice task, trained rats were administered either with TBZ (1.0 mg/kg) or vehicle 120 min before testing, and (S)-MK-26 also with doses of 15.0, 30.0, 45.0 mg/kg or vehicle 30 min before testing, via intraperitoneal (IP) injections on drug testing days. A repeated-measures design was utilized where each rat received each drug treatment in a randomly varied order, once per week. The following five treatment combinations were given: TBZ vehicle + (S)-MK-26 vehicle; 1.0 mg/kg TBZ + (S)-MK-26 vehicle; 1.0 mg/kg TBZ + 15.0 mg/kg (S)-MK-26; 1.0 mg/kg TBZ + 30.0 mg/kg (S)-MK-26; 1.0 mg/kg TBZ + 45.0 mg/kg (S)-MK-26. Next, to see if the effects of lower doses, the following four treatment combinations were given in a repeated measure design: TBZ vehicle + (S)-MK-26 vehicle; 1.0 mg/kg TBZ + (S)-MK-26 vehicle; 1.0 mg/kg TBZ + 3.75 mg/kg (S)-MK-26; 1.0 mg/kg TBZ + 7.5 mg/kg (S)-MK-26.

[2] = 15.0, 30.0 and 45.0 mg/kg i.p. coadministered with 1.0 mg/kg TBZ

T1 sequence (P31645 whole entry): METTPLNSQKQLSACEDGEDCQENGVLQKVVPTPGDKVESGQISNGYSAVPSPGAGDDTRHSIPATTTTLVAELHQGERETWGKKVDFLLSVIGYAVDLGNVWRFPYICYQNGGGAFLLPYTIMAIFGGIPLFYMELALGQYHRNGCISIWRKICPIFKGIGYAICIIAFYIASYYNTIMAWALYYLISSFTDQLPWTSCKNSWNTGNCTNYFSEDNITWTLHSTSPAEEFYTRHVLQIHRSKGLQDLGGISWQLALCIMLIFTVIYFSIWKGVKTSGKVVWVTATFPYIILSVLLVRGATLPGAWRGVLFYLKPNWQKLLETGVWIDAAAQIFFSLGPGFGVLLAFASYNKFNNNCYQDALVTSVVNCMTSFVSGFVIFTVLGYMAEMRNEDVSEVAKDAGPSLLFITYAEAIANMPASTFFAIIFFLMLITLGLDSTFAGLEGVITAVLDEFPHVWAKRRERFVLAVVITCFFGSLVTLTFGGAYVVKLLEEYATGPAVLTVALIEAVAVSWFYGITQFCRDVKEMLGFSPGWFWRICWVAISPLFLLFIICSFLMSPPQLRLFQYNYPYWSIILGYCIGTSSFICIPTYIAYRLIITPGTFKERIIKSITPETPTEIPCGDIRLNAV

SMILES: [O-][S@@+](Cc1cncs1)C(c1cccc(Cl)c1)c1cccc(Cl)c1 [(S)-MK-26, (S)-5-(((B(3-chlorophenyl)methyl)sulphinyl)methyl)thiazole]
- IC50 (hSERT): > 1000 µM
- IC50 (hDAT): 0.56 µM
- fold lower hDAT IC50 compared to (R)-MK-26 (hDAT; uptake inhibition, HEK293): approximately 65 fold
- fold lower hDAT IC50 compared to (R)-Modafinil (hDAT; uptake inhibition, HEK293): 10 fold
- effect on TBZ-induced change in chow intake [1, 2]: significantly attenuated the effects of TBZ
- effect on TBZ-induced change in lever pressing [1, 2]: significantly attenuated the effects of TBZ
- potency in effort-based choice tests compared to other modafinil analogs ([1]; comparison with earlier studies): lower potency than (S,S)-CE-158
- reversal of TBZ effects on lever pressing and chow intake ([1]; low-dose progression 3.75 and 7.5 mg/kg i.p. with 1.0 mg/kg TBZ): failed to reverse the effects of TBZ
